Data as given in patent US20230165798A1, “MACROCYCLIC LACTONE FORMULATIONS, METHODS OF THEIR PREPARATION AND USE OF THE FORMULATIONS IN TREATING PATHOLOGIES SECONDARY TO OPHTHALMIC PARASITES” (Hovione Scientia, priority 2018, published 2023).

Legend:
[1] = HPLC assay of ivermectin before and after Gamma irradiation; type: physicochemical
Excerpt: The inventors have also determined that use of the polymer in the amorphous solid dispersion of ivermectin protects the ivermectin from degradation that occurs during Gamma irradiation, heat sterilization or e-beam sterilization. Ophthalmic formulations must be sterilized and Gamma irradiation, heat sterilization or e-beam sterilization are suitable methods for sterilization because other methods, such as filtration, are not suitable for a suspension formulation. The amorphous solid dispersions for Examples 1-3 were tested to determine the extent that the polymer protects the ivermectin during Gamma irradiation. For preliminary tests, the amorphous ivermectin solid dispersions were sterilized by Gamma irradiation at 25 kGy for 22 hours in a Precisa 22 equipment. The ASDs were analyzed by XRPD and HPLC to determine if the Gamma irradiation changed the ivermectin polymorphic form and degradation respectively.
The assay of the ivermectin on the amorphous solid dispersion was performed before, 1 week and 1 month after the application of Gamma irradiation. Preliminary trials of sterilization by gamma irradiation were successfully completed in the solid material of ivermectin alone and ASDs.
(§1) Table 4 provides a summary of the characterizations (HPLC, XRPD and particle size) of ivermectin and of the amorphous solid dispersion of Example 1 (PVP-VA 64), Example 2 (PVP K-30) and Example 3 (HPMC E4M) prior to irradiation and after irradiation. Preliminary trials of sterilization by gamma irradiation were successfully completed in the solid material of ivermectin alone and ASDs. The amorphous form of the ASDs was not affected by gamma irradiation.

[2] = XRPD polymorphic form before and after Gamma irradiation; type: physicochemical
Procedure: (§2) The solid-state characterization of the spray dried amorphous ivermectin solid dispersions of Examples 1-3 prepared by the traditional spray drying process were evaluated by Scanning Electronic Microscopy (SEM) (Phenom ProX SEM), Differential Scanning calorimetry (DSC) (TA Instruments), Laser diffraction (Sympatec HELOS/RODOS, Germany) employing the rotary feeder and R1 lens, X-Ray Powder Diffraction (Pan Analytical), Raman Spectroscopy (Witec) and High Performance Liquid Chromatography (Waters). FIG. 1 is a scanning electron microscopic picture of the amorphous solid dispersion of Example 1 (ivermectin and PVP-VA-64). FIG. 2 is a scanning electron microscopic image of the amorphous solid dispersion of Example 2 (ivermectin and PVP K-30). FIG. 3 is a scanning electron microscopic picture of the amorphous solid dispersion of Example 3 (ivermectin and HPMC E4M). FIGS. 1-3 are at a magnification of 6000×. FIGS. 4-6 are thermograms of the ASD of Examples 1-3 obtained by differential scanning calorimetry. FIGS. 7-9 are diffractograms of the ASD of Examples 1-3. […] FIGS. 10 and 11 are Raman spectrums for ivermectin, the polymer PVP VA-64 and mixtures of the two (FIG. 10) and ivermectin, the polymer PVP K-30 and mixtures of the two (FIG. 11). […] FIG. 10 includes ratios of ivermectin to PVP VA-64 at ratios of 1:1 and 1:2 and FIG. 11 includes ratios of ivermectin to PVP K-30 at ratios of 1:1, 1:3, and 2:3.
The inventors have also determined that use of the polymer in the amorphous solid dispersion of ivermectin protects the ivermectin from degradation that occurs during Gamma irradiation, heat sterilization or e-beam sterilization. Ophthalmic formulations must be sterilized and Gamma irradiation, heat sterilization or e-beam sterilization are suitable methods for sterilization because other methods, such as filtration, are not suitable for a suspension formulation. […] The ASDs were analyzed by XRPD and HPLC to determine if the Gamma irradiation changed the ivermectin polymorphic form and degradation respectively. […]

[3] = Particle size D90 by laser diffraction before and after Gamma irradiation; type: physicochemical
Procedure: as §2, §1

demodex = details: oral ivermectin, 19 subjects, cited from earlier work
[4] = tested on: TNF-α, IL-1, and IL-6 (lipopolysaccharide (LPS)-induced cytokines); details: through NF-κB; cited from earlier work
[5] = Visual solubility in artificial sebum; type: physicochemical; details: 24 h of mixing with a magnetic stirrer at room temperature, same amount of ivermectin
Procedure: Some polymers have a capacity to improve the solubility of the ivermectin in the local region of application.
The sebum with the amorphous ivermectin dispersions remains clear (solubilized) after 24 h of mixing with a magnetic stirrer at room temperature, and without polymers the sebum continued opaque (ivermectin in suspension—not solubilized) after the addiction of the both forms of ivermectin (crystalline or amorphous).

Row | Compound | % API (After: 1 month) ([1]; HPLC, 1 month after Gamma irradiation at 25 kGy for 22 hours) | % API (After: 1 week) ([1]; HPLC, 1 week after Gamma irradiation at 25 kGy for 22 hours) | % API (Before) ([1]; HPLC, before Gamma irradiation) | HPLC (Assay IVM) After irradiation (T = 1 month) ([1]; Table 4, 1 month after Gamma irradiation) | HPLC (Assay IVM) After irradiation (T = 1 week) ([1]; Table 4, 1 week after Gamma irradiation) | HPLC (Assay IVM) Before irradiation ([1]; Table 4, before irradiation) | % API degraded ([1]; before vs 1 month after Gamma irradiation) | XRPD After irradiation (T = 1 month) ([2]; 1 month after Gamma irradiation) | XRPD After irradiation (T = 1 week) ([2]; 1 week after Gamma irradiation) | XRPD Before irradiation ([2]; before irradiation) | D90 After irradiation (T = 1 week) ([3]; 1 week after Gamma irradiation) | D90 After irradiation (2 M) ([3]; after Gamma irradiation, cells marked (2 M) in the T = 1 month column) | D90 Before irradiation ([3]; before irradiation) | Eradication of the demodex (demodex; by month 3 of treatment) | Improvement in signs of ocular inflammation (demodex) | Symptomatic improvement (demodex) | Change in TNF-α, IL-1, and IL-6 [4] | Solubility (visual inspection) [5]
1 | CC[C@H](C)[C@H]1O[C@]2(CC[C@@H]1C)C[C@@H]1C[C@@H](C/C=C(\C)[C@@H](O[C@H]3C[C@H](OC)[C@@H](O[C@H]4C[C@H](OC)[C@@H](O)[C@H](C)O4)[C@H](C)O3)[C@@H](C)/C=C/C=C3\CO[C@@H]4[C@H](O)C(C)=C[C@@H](C(=O)O1)[C@]34O)O2 [IVM, ivermectin] | 84.3% | 86.9% | 95.2% | 84.26% | 86.9% | 95.2% | 10.9% | Amorphous | Amorphous | Amorphous | 2.53 μm | 2.41 (2 M) μm | 2.66 μm | All subjects had eradication of the demodex | all subjects had an improvement | All but two subjects improved symptomatically | decrease | 
2 | ivermectin [Crystalline ivermectin] |  |  |  |  |  |  |  |  |  |  |  |  |  |  |  |  |  | opaque
